Key:
Bacillus Cereus = assay: Agar plate disc-diffusion, antibacterial activity by inhibition zone; type: cell-based; settings: Bacillus Cereus (Gram positive)
Experimental: (§1) The agar plate disc-diffusion method was applied. […] The discs were then placed onto the surface of agar plates (nutrient agar for bacteria and Sabouraud's dextrose agar for fungi) seeded with the test organism. Each plate contained 15 ml of the agar medium, previously seeded with 0.2 mL of the broth culture of each organism pregrown for 18 hours. The plates were incubated at 37° C. for 48 hours and 72 hours for fungi. The inhibition zones were measured in mm. Discs impregnated with DMSO were used as a control, and their inhibition zone was subtracted from the tested compound's actual inhibition zone.
(§2) The results of the antimicrobial testing can be observed in Tables 1 and 2, below, with ciprofloxacin serving as a reference.

Escherichia coli = assay: as above; type: cell-based; settings: Escherichia coli (Gram negative)
Experimental: as §1, §2

Pseudomonas aeruginosa = assay: as above; type: cell-based; settings: Pseudomonas aeruginosa (Gram negative)
Experimental: as §1, §2

Staphylococcus aureus = assay: as above; type: cell-based; settings: Staphylococcus aureus (Gram positive)
Experimental: as §1, §2

Aspergillus flavus = assay: Agar plate disc-diffusion, antifungal activity by inhibition zone; type: cell-based
Experimental: as §1, §2

[1] = test system: Chrysosporium keratinophilum; assay: as above; type: cell-based
Experimental: as §1, §2

[2] = A = concentration of comp. = 10,000 μL
[3] = B = concentration of comp. = 30.000 μL
[4] = C = concentration of comp. = 50,000 μL

**Q.** With `CCOc1nc(-c2ccccc2Cl)cc(-c2cccnc2)c1C#N` [Compound 4, 6′-(2-chlorophenyl)-2′-ethoxy-3,4′-bipyridine-3′-carbonitrile] as the molecule, how does the inhibition zone (Bacillus Cereus; [2]) read?
**A.** 25 mm

**Q.** And the inhibition zone (Bacillus Cereus; [3])?
**A.** 27 mm

**Q.** What about the inhibition zone (Bacillus Cereus; [4]) of the same molecule?
**A.** 39 mm

**Q.** What about the inhibition zone (Escherichia coli; [2]) of the same molecule?
**A.** 26 mm

**Q.** And the inhibition zone (Escherichia coli; [3])?
**A.** 28 mm

**Q.** And the inhibition zone (Escherichia coli; [4])?
**A.** 40 mm

**Q.** What about the inhibition zone (Pseudomonas aeruginosa; [2]) of the same molecule?
**A.** 25 mm

**Q.** What about the inhibition zone (Pseudomonas aeruginosa; [3]) of the same molecule?
**A.** 27 mm

**Q.** And the inhibition zone (Pseudomonas aeruginosa; [4])?
**A.** 38 mm

**Q.** What about the inhibition zone (Staphylococcus aureus; [2]) of the same molecule?
**A.** 18 mm

**Q.** What about the inhibition zone (Staphylococcus aureus; [3]) of the same molecule?
**A.** 24 mm

**Q.** What about the inhibition zone (Staphylococcus aureus; [4]) of the same molecule?
**A.** 36 mm

**Q.** What about the inhibition zone (Aspergillus flavus; [2]) of the same molecule?
**A.** 20 mm

**Q.** And the inhibition zone (Aspergillus flavus; [3])?
**A.** 24 mm

**Q.** What about the inhibition zone (Aspergillus flavus; [4]) of the same molecule?
**A.** 35 mm

**Q.** What about the inhibition zone [1, 2] of the same molecule?
**A.** 25 mm

**Q.** And the inhibition zone [1, 3]?
**A.** 27 mm

**Q.** And the inhibition zone [1, 4]?
**A.** 44 mm

**Q.** What about the melting point of the same molecule?
**A.** 156 to 158 °C
